Measurements: patent US10829483B2, “Thiophene, manufacturing method thereof, and pharmaceutical application of same” (CSTONE PHARMACEUTICAL (SUZHOU) CO., LTD., priority 2016, dated 2020)

Molecular target: URAT-1 (uric acid transporter) (Homo sapiens (Human), UniProt Q96S37)
Assay: Inhibition of 14C uric acid transport by HEK293 cell line stably transfected with the URAT-1 gene
Assay type: cell-based
Details: URAT-1 (HEK293) cells; 14C-labelled uric acid 50 um, 10 min at 37° C.; read-out: IC50 (inhibition against URAT-1)
Experimental: Determination of the IC50 value of the inhibitory activity of the compound against uric acid reabsorption by the HEK293 cell line stably transfected with the URAT-1 (uric acid transporter) gene.
URAT-1 (HEK293) cell line: the HEK293 cell line stably transfected with the URAT-1 gene
cell culture medium: DMEM culture medium added 10% fetal bovine serum (FBS), 1% sodium pyruvate and […] G418.
Uric acid solution labeled by ^14C.
1) the supernatant of cell culture was aspirated, and cells was washed with 10 mL PBS.
2) preheated trypsin was added into the cell culture flask, and the cell culture flask was rotated to make trypsin covering onto the bottom of cell culture flask equably.
3) the cells were suspended with 10-15 mL of culture medium in each T150 flask, took 0.1 mL of cell suspension and diluted it with two volumes of trypan blue solution to count the cells.
4) cells were diluted to 2.5×10^5/mL with the culture medium, and the diluted cells were added into a rat tail collagen-coated 24-well plate (800 uL/well, 2×10^5 cells/well). The plate was incubated overnight at 37° C. in a 5% CO2 incubator.
1) cells were seeded into 24-well plate, and supernatant was discarded after 16-18 h. The cells were washed twice using 600 ul HBSS buffer.
2) HBSS buffer was removed and 180 ul of HBSS buffer was added into each well again.
1) compounds were dissolved into 100% DMSO, and diluted into 6 concentration points by 3-fold dilution, or into 2 concentration points by 10-fold dilution, and the highest starting concentration was 50 mM.
2) 5 ul DMSO solution in step 1) was transferred into 120 ul of HBSS buffer to make a 25-fold dilution.
3) 10 ul diluted solution in step 2) was added into 24-well plate, and the plate was incubated for 15 min at 37° C. in a 5% CO2 incubator. The final concentration of DMSO is 0.2%. The control well contained 0.2% DMSO without compound.
^14C-labelled uric acid was diluted and added into plate, and the final concentration is 50 um. The plate was incubated for 10 min at 37° C. in a 5% CO2 incubator. After supernatant was discarded, cells were washed with HBSS buffer twice. Cells was lysed with 0.1M NaOH. And then cell lysis solution was collected into liquid scintillation tube and added with liquid scintillation solution. The signal was read by liquid scintillation counter Tri-Carb. e) data analysis URAT-1 inhibition by the treatment of the compounds was analyzed by calculating the percentage of inhibition. Non-linear fitting analysis of percent inhibition (inh %) data using GraphPad Prism software to generate the IC50 value.

Sequence of URAT-1 (uric acid transporter) (Q96S37 whole entry): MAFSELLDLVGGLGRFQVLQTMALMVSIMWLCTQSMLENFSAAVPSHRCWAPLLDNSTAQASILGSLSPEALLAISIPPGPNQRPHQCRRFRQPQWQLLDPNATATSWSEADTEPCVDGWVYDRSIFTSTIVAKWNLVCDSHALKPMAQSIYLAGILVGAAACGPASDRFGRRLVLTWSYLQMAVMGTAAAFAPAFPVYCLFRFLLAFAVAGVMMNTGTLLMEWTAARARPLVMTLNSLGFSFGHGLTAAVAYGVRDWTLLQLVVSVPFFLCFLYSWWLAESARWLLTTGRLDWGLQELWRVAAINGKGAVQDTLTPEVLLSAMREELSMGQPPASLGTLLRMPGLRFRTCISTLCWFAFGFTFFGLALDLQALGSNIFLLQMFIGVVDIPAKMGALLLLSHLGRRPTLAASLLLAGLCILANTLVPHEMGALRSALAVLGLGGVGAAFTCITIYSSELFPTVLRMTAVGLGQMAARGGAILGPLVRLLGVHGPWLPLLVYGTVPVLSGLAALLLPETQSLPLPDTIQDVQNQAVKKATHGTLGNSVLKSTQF

Row | IC50 | SMILES
1 | > 20 µM | O=C(O)CSc1nnc(Br)n1-c1sc(-c2cccc(F)c2)c2c1CCC2 [WX039]
2 | 2 to 20 µM | O=C(O)CSc1nnc(Br)n1-c1sc(-c2ccc(F)cc2)c2c1CCCC2 [WX006]
3 | > 20 µM | O=C(O)CSc1nnc(Br)n1-c1sc(-c2ccc(Cl)c(Cl)c2)c2c1CCC2 [WX041]
4 | < 2 µM | CC(Sc1nnc(Br)n1-c1sc(C2CC2)c2c1CCCC2)C(=O)O (centres unmarked) [WX026]
5 | > 20 µM | O=C(O)CSc1nnc(Br)n1-c1sc(-c2ccc(F)cc2)c2c1CCC2 [WX038]
6 | > 20 µM | CC(Sc1nnc(Br)n1-c1sc(-c2ccc(S(C)(=O)=O)cc2)c2c1CCCC2)C(=O)O (centres unmarked) [WX015]
7 | > 20 µM | O=C(O)CSc1nnc(Br)n1-c1sc(-c2ccc(Cl)cc2)c2c1CCC2 [WX040]
8 | 2 to 20 µM | O=C(O)C(Sc1nnc(Br)n1-c1sc(C2CC2)c2c1CCC2)c1ccccc1 (centres unmarked) [WX064]
9 | > 20 µM | O=C(O)CSc1nnc(Br)n1-c1sc(-c2ccccc2)c2c1CCC2 [WX037]
10 | > 20 µM | Cc1ccc(-c2sc(-n3c(Br)nnc3SCC(=O)O)c3c2CCC3)cc1 [WX042]
11 | > 20 µM | CC(C)(Sc1nnc(Br)n1-c1sc(-c2ccncn2)c2c1CCCC2)C(=O)O [WX025]
12 | 2 to 20 µM | COc1ccc(-c2sc(-n3c(Br)nnc3SC(C)C(=O)O)c3c2CCCC3)cc1 (centres unmarked) [WX016]
13 | > 20 µM | CC(C)(C)c1ccc(-c2sc(-n3c(Br)nnc3SCC(=O)O)c3c2CCC3)cc1 [WX046]
14 | 2 to 20 µM | O=C(O)CSc1nnc(Br)n1-c1sc(-c2ccc(Cl)c(Cl)c2)c2c1CCCC2 [WX019]
15 | 2 to 20 µM | CC(C)(Sc1nnc(Br)n1-c1sc(-c2ccc(C(F)(F)F)cc2)c2c1CCCC2)C(=O)O [WX010]
16 | 2 to 20 µM | Cc1cc(-n2c(Br)nnc2SC(C)C(=O)O)sc1-c1ccccc1 (centres unmarked) [WX080]

Row | IC50 | SMILES
17 | < 2 µM | CC(Sc1nnc(Br)n1-c1sc(-c2ccc(C(F)(F)F)cc2)c2c1CCCC2)C(=O)O (centres unmarked) [WX014]
18 | < 2 µM | COc1ccc(-c2sc(-n3c(Br)nnc3SC(C)C(=O)O)c3c2CCCC3)cc1Br (centres unmarked) [WX012]
19 | < 2 µM | C[C@H](Sc1nnc(Br)n1-c1sc(C2CC2)c2c1CCCC2)C(=O)O [WX032]
20 | > 20 µM | O=C(O)CSc1nnc(Br)n1-c1sc(-c2ccccc2)c2c1OCCO2 [WX099]
21 | 2 to 20 µM | O=C(O)CSc1nnc(Br)n1-c1sc(-c2ccc(F)c(F)c2)c2c1CCCC2 [WX008]
22 | 2 to 20 µM | Cc1cc(-n2c(Br)nnc2SCC(=O)O)sc1-c1ccccc1 [WX079]
23 | > 20 µM | O=C(O)CSc1nnc(Br)n1-c1sc(-c2ccc(C(F)(F)F)cc2)c2c1CCC2 [WX044]
24 | < 2 µM | CC(C)(Sc1nnc(Br)n1-c1sc(-c2ccc(F)c(F)c2)c2c1CCCC2)C(=O)O [WX013]
25 | < 2 µM | CC(C)C(Sc1nnc(Br)n1-c1sc(C2CC2)c2c1CCCC2)C(=O)O (centres unmarked) [WX028]
26 | > 20 µM | Cn1cc(-c2sc(-n3c(Br)nnc3SCC(=O)O)c3c2CCC3)cn1 [WX047]
27 | 2 to 20 µM | O=C(O)CSc1nnc(Br)n1-c1sc(-c2cccc(F)c2)c2c1CCCC2 [WX007]
28 | 2 to 20 µM | CC(Sc1nnc(Br)n1-c1sc(-c2ccccc2)c2c1CCCC2)C(=O)O (centres unmarked) [WX004]
29 | < 2 µM | CC(Sc1nnc(Br)n1-c1sc(C2CC2)c2c1CCC2)C(=O)O (centres unmarked) [WX061]
30 | 2 to 20 µM | COc1ccc(-c2sc(-n3c(Br)nnc3SCC(=O)O)c3c2CCCC3)cc1 [WX017]
31 | 2 to 20 µM | Cc1cc(-n2c(Br)nnc2SC(C)C(=O)O)sc1-c1cccc(F)c1 (centres unmarked) [WX087]
32 | > 20 µM | O=C(O)CSc1nnc(Br)n1-c1sc(-c2cccc(Cl)c2)c2c1CCC2 [WX045]

More lines, now with the values behind:

Row | SMILES | IC50
33 | COC(=O)C(C)(C)Sc1nncn1-c1cc(Br)c(-c2ccccc2)s1 [WX077] | > 20 µM
34 | Cc1cc(-n2c(Br)nnc2SC(C)(C)C(=O)O)sc1C1CC1 [WX089] | 2 to 20 µM
35 | COc1ccc(-c2sc(-n3cnnc3SCC(=O)O)c3c2CCC3)cc1 [WX049] | > 20 µM
36 | Cc1cc(-n2cnnc2SCC(=O)O)sc1-c1ccc(F)cc1 [WX095] | > 20 µM
37 | CC(C)(C)c1ccc(-c2sc(-n3cnnc3SCC(=O)O)c3c2CCC3)cc1 [WX048] | > 20 µM
38 | O=C(O)CSc1nncn1-c1sc(-c2ccc(C(F)(F)F)cc2)c2c1CCC2 [WX051] | > 20 µM
39 | CC(C)c1nnc(SCC(=O)O)n1-c1sc(C2CC2)c2c1CCC2 [WX101] | > 20 µM
40 | CC1(C)CCc2c(-n3c(Br)nnc3SC(C)(C)C(=O)O)sc(C3CC3)c2C1 [WX035] | < 2 µM
41 | COc1ccc(-c2sc(-n3c(Br)nnc3SCC(=O)O)cc2C)cc1 [WX083] | > 20 µM
42 | Cc1cc(-n2c(Br)nnc2SC(C(=O)O)c2ccccc2)sc1C1CC1 (centres unmarked) [WX090] | 2 to 20 µM
43 | COC(=O)CSc1nncn1-c1cc(Br)c(-c2ccccc2)s1 [WX073] | > 20 µM
44 | CC1(C)CCc2c(C3CC3)sc(-n3c(Br)nnc3SC(C)(C)C(=O)O)c2C1 [WX034] | < 2 µM
45 | Cc1cc(-n2c(Br)nnc2SCC(=O)O)sc1-c1ccc(C(C)(C)C)cc1 [WX085] | > 20 µM
46 | COC(=O)C(C)Sc1nncn1-c1cc(Br)c(-c2ccccc2)s1 (centres unmarked) [WX075] | 2 to 20 µM
47 | CN(C)c1ccc(-c2sc(-n3cnnc3SCC(=O)O)c3c2CCC3)cc1 [WX053] | > 20 µM
48 | O=C(O)C1(Sc2nnc(Br)n2-c2cc(Cl)c(C3CC3)s2)CCCC1 [WX069] | < 2 µM
49 | CC(C)(Sc1nnc(Br)n1-c1sc(C2CC2)c2c1CCC(F)(F)C2)C(=O)O [WX033] | < 2 µM
50 | CCC(C)(Sc1nnc(Br)n1-c1sc(C2CC2)c2c1CCC2)C(=O)O (centres unmarked) [WX063] | < 2 µM
51 | CC(Sc1nnc(Br)n1-c1cc(Cl)c(C2CC2)s1)C(=O)O (centres unmarked) [WX070] | 2 to 20 µM
52 | Cc1ccc(-c2sc(-n3cnnc3SCC(=O)O)c3c2CCC3)cc1 [WX050] | > 20 µM
53 | CC(C)(Sc1nnc(Br)n1-c1sc(C2CC2)c2c1CCCC2)C(=O)O [WX027] | < 2 µM
54 | O=C(O)C1(Sc2nnc(Br)n2-c2sc(C3CC3)c3c2CCC3)CCC1 [WX059] | < 2 µM
55 | CC(C)(Sc1nnc(Br)n1-c1cc(Cl)c(C2CC2)s1)C(=O)O [WX067] | < 2 µM
56 | CCOC(=O)C(C)(C)Sc1nnc(Br)n1-c1sc(C(=O)Nc2ccc(F)c(F)c2)c2c1CCCC2 [WX100] | > 20 µM

Row | SMILES | IC50
57 | O=C(O)CSc1nncn1-c1sc(-c2ccc(Cl)c(Cl)c2)c2c1CCC2 [WX055] | > 20 µM
58 | O=C(O)CSc1nnc(Br)n1-c1sc(C2CC2)c2c1CCCC2 [WX001] | < 2 µM
59 | O=C(O)C1(Sc2nnc(Br)n2-c2sc(C3CC3)c3c2CCCC3)CCCC1 [WX030] | < 2 µM
60 | COc1ccc(-c2sc(-n3cnnc3SCC(=O)O)cc2C)cc1 [WX096] | > 20 µM
61 | CCOC(=O)C(C)(C)Sc1nncn1-c1cc(Br)c(C2CC2)s1 [WX076] | 2 to 20 µM
62 | O=C(O)CSc1nncn1-c1sc(-c2cccc(Cl)c2)c2c1CCC2 [WX052] | > 20 µM
63 | O=C(O)C1(Sc2nnc(Br)n2-c2sc(C3CC3)c3c2CCC3)CCCC1 [WX060] | < 2 µM
64 | Cc1cc(-n2c(Br)nnc2SC(C(=O)O)C(C)C)sc1C1CC1 (centres unmarked) [WX088] | < 2 µM
65 | Cn1cc(-c2sc(-n3cnnc3SCC(=O)O)c3c2CCC3)cn1 [WX056] | > 20 µM
66 | CN(C)c1ccc(-c2sc(-n3cnnc3SCC(=O)O)c3c2CCC3)cc1Br [WX057] | 2 to 20 µM
67 | CCOC(=O)C(C)Sc1nncn1-c1cc(Br)c(C2CC2)s1 (centres unmarked) [WX074] | > 20 µM
68 | Cc1cc(-n2c(Br)nnc2SCC(=O)O)sc1C1CC1 [WX078] | > 20 µM
69 | Cc1cc(-n2c(Br)nnc2SC(C)(C)C(=O)O)sc1-c1ccccc1 [WX081] | 2 to 20 µM
70 | Cc1cc(-n2c(Br)nnc2SC2(C(=O)O)CCC2)sc1C1CC1 [WX093] | < 2 µM
71 | CCOC(=O)CSc1nncn1-c1cc(Br)c(C2CC2)s1 [WX072] | > 20 µM
72 | CNc1c(Br)cc(-c2sc(-n3cnnc3SC(C)(C)C(=O)O)c3c2CCCC3)cc1Br [WX024] | 2 to 20 µM
73 | O=C(O)C1(Sc2nnc(Br)n2-c2sc(C3CC3)c3c2CCCC3)CCC1 [WX029] | < 2 µM
74 | CC(Sc1nncn1-c1sc(C2CC2)c2c1CCCC2)C(=O)O (centres unmarked) [WX036] | > 20 µM
75 | Cc1cc(-n2c(Br)nnc2SC2(C(=O)O)CCCC2)sc1C1CC1 [WX092] | < 2 µM
76 | O=C(O)CSc1nncn1-c1sc(-c2ccc(F)c(F)c2)c2c1CCCC2 [WX021] | > 20 µM
77 | CN(C)c1ccc(-c2sc(-n3cnnc3SC(C)(C)C(=O)O)c3c2CCCC3)cc1Br [WX023] | 2 to 20 µM
78 | Cc1cc(-n2cnnc2SCC(=O)O)sc1-c1ccc(C(F)(F)F)cc1 [WX097] | > 20 µM
79 | CCOC(=O)C(C)(C)Sc1nncn1-c1sc(C(=O)NC(O)CCBr)c2c1CCCC2 (centres unmarked) [WX103] | 2 to 20 µM
80 | CC(C)(Sc1nnc(Br)n1-c1sc(C2CC2)c2c1CCC2)C(=O)O [WX062] | < 2 µM
